The values that follow come from patent US7261875B2, “Dendritic poly (amino acid) carriers and methods of use” (Board of Regents, The University of Texas System, priority 2001, dated 2007).

Data set [1] concerns human vulvar squamous A431 cell line. Kind of data set: MTT assay, growth inhibition of A431 cells. Type of data set: cell-based. Particulars: A-431, 72 hrs continuous incubation, equivalent TXL concentrations, read-out: estimated IC50, growth inhibition.
Method: The MTT assay was used to quantitatively compare the effects of PAMAM-PG8-TXL, linear PG-TXL, and paclitaxel on cell growth in a human vulvar squamous A431 cell line. Cells were plated in a 96-well plate at a density of 2000 cells/well and then incubated with various concentrations of paclitaxel, PAMAM-PG8-TXL, or linear PG-TXL.
Data set [2] in a line: Body weight loss after treatment. Particulars: 60 mg/kg, single i.v. dose.
For data set [3], the system named is syngeneic murine ovarian OCA-1 tumor. Kind of data set: Tumor growth delay after a single intravenous dose. Particulars: dose of 60 mg/kg, single i.v. dose, tumors 8 mm.
For the next data set, the system named is SK-Br3 cells. Kind of data set: Fluorescence microscopy, non-specific interaction of near-infrared dyes with FR-negative cells. Type of data set: cell-based, human. Conditions: SK-Br3 cells (do not express FR), 30 minute incubation, 37° C. How it is done:
The folic acid receptors (FR)-mediated binding of near-infrared gluorescent conjugate PAMAM-PG16-ICG-folate was studied using a human nasopharyngeal epidermal carcinoma cell line KB and a human breast carcinoma cell line SK-BR3. KB cells over-express the FR, whereas SK-Br3 cells have no detectable […]. Cells were incubated with PAMAM-PG16-ICG-folate, indocyanine green (ICG, Sigma-Aldrich Corp. St. Louis, Mo.) or ICG-NH2 at 37° C. on cover clips in a 24-well place (Beckton Dickinson Labware, Franklin Kakes, N.J.). Each well contained 0.5 ml Dulbecco's Modified Eagle's medium/nutrient Mixture F-12 Ham (DMEM/F12) containing 10% FBS (Gibco, Grand Island, N.Y.). The final concentration of the conjugate was calculated based on the equivalent does of folic acid and ICG-NH2. For the blocking study, free folic acid was added to the culture medium 30 minutes prior to the addition of the test agents. […] Data were recorded by a Leica DMR microscope (Leica Microsystems Inc. Brannockburn, Ill.) equipped with a 75 W Xenon lamp, Indo-Cyanine Green and FITC filters (775/845 and 480/535, excitation/emission, respectively) (Chroma Technology Corp., Brattleboro, Vt.), Hamamatsue B/W Chilled CCD camera (Hamamatsu Photonics, K.K. Hamamamatsu City, Japan) and Image-Pro Plus 4.5.1 software (Media Cybernetics, L. P., Silver Spring, Md.). […]

In general, IC50 refers to the concentration needed to halve the response being measured.

With `CC(=O)O[C@H]1C(=O)[C@@]2(C)[C@H]([C@H](OC(=O)c3ccccc3)[C@]3(O)C[C@H](OC(=O)[C@H](O)[C@@H](NC(=O)c4ccccc4)c4ccccc4)C(C)=C1C3(C)C)[C@]1(OC(C)=O)CO[C@@H]1C[C@@H]2O` [paclitaxel], in data set [1], the IC50 was under 1 nM. This compound yielded a body weight loss in data set [2] of 10%. The compound further gave a growth delay in data set [3] of 14 days.
`CC1(C)C(/C=C/C=C/C=C/C=C2\N(CCCCS(=O)(=O)O)c3ccc4ccccc4c3C2(C)C)=[N+](CCCCS(=O)(=O)[O-])c2ccc3ccccc3c21` [ICG, indocyanine green]: the “fluorescence / non-specific interaction with cells” value with SK-Br3 cells is listed as “did not have detectable non-specific interaction”.
